From US20110021458A1, “PHARMACEUTICAL COMPOSITIONS CONTAINING AN INCLUSION COMPLEX FORMED BY DISULFIRAM AND A CYCLODEXTRINE, WHICH CAN BE USED IN THE TREATMENT OF ALCOHOL AND COCAINE DEPENDENCE” (priority 2007, published 2011) come the findings set out here.

The subject of data set [1] is rat skin in the areas of subcutaneous administration. Nature of the data set: Histopathological study of the subcutaneous administration area. It is filed as in vivo. As to conditions: for histological findings in rat skin: SC 15 mg/kg of DSF. The protocol:
FIGS. 3 to 10: histological cuts of rat skin in the areas of subcutaneous administration (SC), 15 mg/kg of DSF to the form of DSF physiological serum (PS) (A); Complex DSF-CD in SF (B), 25:75 Binary Mixture in SF (C) and control with SF (D). The histological were obtained at different times post-administration of each test. FIG. 3 is up to 8 hours post-administration; FIG. 4, to 24 hours post-administration; FIG. 5, at 48 hours post-administration; FIG. 6 to 72 hours post-administration; FIG. 7, 96 hours post-administration; FIG. 8, to 120 hours post-administration; FIG. 9, to 144 hours post administration and FIG. 10 corresponds to 168 hours post-administration.
The histopathological evaluation was performed for subcutaneous (SC) and intramuscular (IM) injections of DSF free, in the form of CD-DSF Complex and in the form of binary mixture in ratios of 25:75 and 40:60. water, water with 15% glycerin, miglyol and ethyl oleate were used as excipients.
15 mg/kg of free DSF, DSF Complex-CD, Mixed Binary 25:75 and physiological saline (SF) were administered subcutaneously (SC).
Comparative histological study between physiological saline and DSF in its various forms of administration are seen in FIG. 3 to No. 10.

Data set [2] in a line: Pharmacokinetics in rats after SC administration (plasma total DDC). As to conditions: rat, in vivo, 15 mg/kg. The protocol:
FIG. 19: Effect of subcutaneous administration in rats, 15 mg/kg of DSF to the form of binary mixtures in water 25:75 (A); in miglyol (B) and (C) DSF free water on the concentrations Plasma total DDC in time.
In addition to the histopathological studies in rats pharmacokinetic studies were conducted that measured the plasma concentrations of metabolites of DSF (DDC and MeDDC) after administration SC (FIG. 19) and/or IM (FIG. 20), 15 mg/kg weight of DSF to the form of binary mixtures.
It was quantified the plasma concentration of total DDC that corresponds to the sum of the metabolites and MeDDC DDC, and it was used as a parameter for the analysis of the results shown below.

On to `CCN(CC)C(=S)SSC(=S)N(CC)CC` [free DSF, 1-(diethylthiocarbamoyldisulfanyl)-N,N-diethyl-methanethioamide], for which the “histological findings in rat skin” value is “severe hyperemia was observed in the deep vascular plexus with bleeding in hypodermis” in data set [1] (8 hours post-administration); “severe hyperemia was observed in both plexus, abundant presence of inflammatory cells and hemorrhage in hypodermis” in data set [1] (24 hours post-administration); “severe desestructuration of the collagen fibers, hyperemia of deep vascular plexus and moderate bleeding in hypodermis” in data set [1] (48 hours post-administration); “moderate hyperemia was observed in both plexus, with moderate presence of inflammatory cells and hemorrhage in hypodermis” in data set [1] (72 hours post-administration); “moderate hyperemia of deep vascular plexus, with hemorrhage in hypodermis and severe presence of inflammatory cells” in data set [1] (96 hours post-administration); “moderate hyperemia of deep vascular plexus, with slight presence of inflammatory cells and desestructuration of collagen fibers” in data set [1] (120 hours post-administration). Moreover, the “histological findings in rat skin” value is “moderate hyperemia of deep vascular plexus and low presence of inflammatory cells” in data set [1] (144 hours post-administration); “moderate hyperemia of deep vascular plexus” in data set [1] (168 hours post-administration). Also, the “Histopathological lesions, conclusion” value in data set [1] (SC administration) is recorded as “severe Histopathological lesions”. Besides, the “desestructuration of the collagen fibers (summary)” value in data set [1] (SC, rat skin, 8, 24 and 48 hours from inoculation) is given as “mild, moderate to severe”. Besides, the “Hyperemia of deep vascular plexus (summary)” value in data set [1] (SC, rat skin, 8-168 hours) was “severe in biopsies of 8 and 24 hours and mild to moderate in subsequent checks”. Moreover, the “presence of inflammatory cells, superficial vascular plexus hyperemia and hemorrhage in subcutis (summary)” value in data set [1] (SC, rat skin, over the controls of the study) is on record as “moderate to severe”. The “plasma levels of active metabolites at 168 hours post-administration” value in data set [2] is given as “not detected”.
